Assay [1] deals with Phosphatidylinositol 4,5-bisphosphate 3-kinase catalytic subunit alpha isoform (Homo sapiens, UniProt P42336). As to the kind of experiment: Inhibition of human PI3Kalpha expressed in Sf9 cells by fluorescent polarization assay.
For assay [2], the target named is Phosphatidylinositol 4,5-bisphosphate 3-kinase catalytic subunit gamma isoform (Homo sapiens, UniProt P48736). Briefly: Inhibition of human PI3Kgamma expressed in Sf9 cells by fluorescent polarization assay.
For the next assay, the species on record is Homo sapiens. As to the kind of experiment: Selectivity for human PI3Kalpha over human PI3Kgamma.

Broadly, the IC50 is the concentration that gives 50% inhibition. The low end stands for greater potency, the high end for weaker potency.

Chain of Phosphatidylinositol 4,5-bisphosphate 3-kinase catalytic subunit alpha isoform (P42336 whole entry, canonical isoform): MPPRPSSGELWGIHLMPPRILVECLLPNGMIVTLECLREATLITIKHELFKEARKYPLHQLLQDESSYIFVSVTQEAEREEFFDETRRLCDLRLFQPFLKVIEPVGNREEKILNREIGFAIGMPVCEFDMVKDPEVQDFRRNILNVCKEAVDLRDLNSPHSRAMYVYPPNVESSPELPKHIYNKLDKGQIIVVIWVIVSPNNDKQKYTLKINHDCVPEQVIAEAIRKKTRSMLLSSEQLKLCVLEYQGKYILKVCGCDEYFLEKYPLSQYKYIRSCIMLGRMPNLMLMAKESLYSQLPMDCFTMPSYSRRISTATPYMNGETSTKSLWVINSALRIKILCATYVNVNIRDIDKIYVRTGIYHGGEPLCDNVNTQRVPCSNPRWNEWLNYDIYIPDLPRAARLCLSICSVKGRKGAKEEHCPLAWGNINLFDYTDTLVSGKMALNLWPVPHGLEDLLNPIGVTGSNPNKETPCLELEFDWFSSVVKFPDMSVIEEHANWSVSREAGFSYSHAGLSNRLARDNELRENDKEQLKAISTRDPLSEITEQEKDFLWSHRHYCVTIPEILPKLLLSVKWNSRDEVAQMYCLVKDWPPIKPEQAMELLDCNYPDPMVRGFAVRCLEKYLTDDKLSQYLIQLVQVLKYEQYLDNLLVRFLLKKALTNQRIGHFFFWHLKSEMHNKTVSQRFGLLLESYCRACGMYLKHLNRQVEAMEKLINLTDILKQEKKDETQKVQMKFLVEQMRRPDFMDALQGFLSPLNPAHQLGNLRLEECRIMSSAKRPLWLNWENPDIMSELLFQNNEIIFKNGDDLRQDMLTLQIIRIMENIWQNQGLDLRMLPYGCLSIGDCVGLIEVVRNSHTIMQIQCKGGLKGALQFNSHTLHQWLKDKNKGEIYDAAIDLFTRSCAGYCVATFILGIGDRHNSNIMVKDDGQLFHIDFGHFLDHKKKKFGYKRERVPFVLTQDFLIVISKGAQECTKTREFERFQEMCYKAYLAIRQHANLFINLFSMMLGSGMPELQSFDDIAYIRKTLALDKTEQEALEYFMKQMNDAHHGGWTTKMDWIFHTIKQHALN
Chain of Phosphatidylinositol 4,5-bisphosphate 3-kinase catalytic subunit gamma isoform (P48736 whole entry, canonical isoform): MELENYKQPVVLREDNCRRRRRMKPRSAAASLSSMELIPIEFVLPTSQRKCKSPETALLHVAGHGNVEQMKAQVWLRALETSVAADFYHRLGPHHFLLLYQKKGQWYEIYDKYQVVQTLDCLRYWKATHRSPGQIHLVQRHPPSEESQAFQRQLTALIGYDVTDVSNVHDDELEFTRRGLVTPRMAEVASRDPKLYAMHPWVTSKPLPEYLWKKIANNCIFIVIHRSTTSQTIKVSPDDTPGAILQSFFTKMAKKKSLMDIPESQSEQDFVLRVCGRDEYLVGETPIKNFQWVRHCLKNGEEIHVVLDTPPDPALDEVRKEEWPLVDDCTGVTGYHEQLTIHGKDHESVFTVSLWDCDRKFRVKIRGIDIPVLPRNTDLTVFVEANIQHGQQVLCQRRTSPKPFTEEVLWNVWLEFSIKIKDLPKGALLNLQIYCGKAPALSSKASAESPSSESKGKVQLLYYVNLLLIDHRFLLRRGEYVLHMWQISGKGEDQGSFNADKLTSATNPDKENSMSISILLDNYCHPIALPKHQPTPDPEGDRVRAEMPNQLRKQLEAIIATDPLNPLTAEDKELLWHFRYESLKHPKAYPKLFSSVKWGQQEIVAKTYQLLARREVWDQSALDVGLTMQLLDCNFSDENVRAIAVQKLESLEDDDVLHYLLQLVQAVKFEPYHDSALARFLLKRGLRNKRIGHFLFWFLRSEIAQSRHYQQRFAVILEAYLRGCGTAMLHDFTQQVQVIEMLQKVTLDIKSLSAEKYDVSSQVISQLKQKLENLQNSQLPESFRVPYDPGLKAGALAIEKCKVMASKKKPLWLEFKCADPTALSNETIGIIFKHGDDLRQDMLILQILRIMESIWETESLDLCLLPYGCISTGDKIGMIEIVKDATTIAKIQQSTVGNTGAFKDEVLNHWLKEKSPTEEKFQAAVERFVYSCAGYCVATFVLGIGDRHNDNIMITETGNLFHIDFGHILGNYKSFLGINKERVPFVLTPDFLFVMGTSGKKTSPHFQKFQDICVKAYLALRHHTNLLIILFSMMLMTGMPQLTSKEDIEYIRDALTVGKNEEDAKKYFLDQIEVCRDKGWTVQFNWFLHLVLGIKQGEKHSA

`C[C@H]1CC[C@H]2C(C)(C)CCC[C@]2(C)c2c1oc1cc(O)ccc21`: the IC50 in assay [1] and in assay [2] was 2200 nM throughout.

Take `C[C@@H]1CC[C@H]2C(C)(C)CCC[C@]2(C)c2c1oc1c(C=O)c(O)c(O)cc21`: the IC50 in assay [1] is 100 nM; in assay [2], 1000 nM.

Turning to `C[C@@H]1CC[C@H]2C(C)(C)CCC[C@]2(C)C2=C3C=C(O)C(=O)C(Br)=C3OC21O` (stereo partly drawn), the values for the IC50 in assay [1] and in assay [2] were 3300 nM and more than 10000 nM, respectively.

For `COc1ccc2c3c(oc2c1Br)[C@H](C)CC[C@H]1C(C)(C)CCC[C@]31C`, the IC50 in assay [1] and in assay [2] was more than 10000 nM each time.

As for `C[C@@H]1CC[C@H]2C(C)(C)CCC[C@]2(C)c2c1oc1c(Br)c(O)ccc21`, the IC50 in assay [1] came out at 10200 nM; in assay [2], 5700 nM.

As for `C[C@@H]1CC[C@H]2C(C)(C)CCC[C@]2(C)c2c1oc1ccc(O)cc21`, the results for the IC50 in assay [1] and in assay [2] were 7200 nM and 1900 nM, respectively.

For `C[C@@H]1CC[C@H]2C(C)(C)CCC[C@]2(C)c2c1oc1cc(O)ccc21`, the IC50 in assay [1] and in assay [2] was more than 10000 nM each time.

Regarding `C[C@@H]1CCCC(C)(C)C12CC[C@H](C)c1oc3c(Br)c(O)c(O)cc3c12` (mixture of isomers), the values for the IC50 in assay [1] and in assay [2] were 700 nM and 5300 nM, respectively. In the assay listed under Homo sapiens, the Ratio IC50 worked out at 7.

As to `CC1(C)CCC[C@]2(C)C3=C4C=C(O)C(=O)C=C4OC3(O)CC[C@@H]12` (mixture of isomers), the IC50 in assay [1] worked out at 1650 nM; in assay [2], 9570 nM.

For `COc1cc2c3c(oc2c(C=O)c1OC)CC[C@H]1C(C)(C)CCC[C@]31C` (racemic), the values for the concentration for half-maximal inhibition (IC50) in assay [1] and in assay [2] were 5120 nM and 2640 nM, respectively.

`CC1(C)CCC[C@]2(C)c3c(oc4c(C=O)c(O)c(O)cc34)CC[C@@H]12` (racemic): the half-inhibitory concentration (IC50) in assay [1] stood at 66 nM; in assay [2], 1800 nM. Moreover, in the assay filed under Homo sapiens, the Ratio IC50 turned out to be 27.

Consider `COc1cc2c3c(oc2c(C=O)c1O)CC[C@H]1C(C)(C)CCC[C@]31C` (racemic), for which the IC50 in assay [1] came out at 1000 nM; in assay [2] it was 5150 nM.

As for `CC1(C)CCC[C@]2(C)c3c(oc4c(C(N)=O)c(O)c(O)cc34)CC[C@@H]12` (racemic), the IC50 was found to be 700 nM in assay [1] and 1400 nM in assay [2].

The values above are taken from ChEMBL document CHEMBL1629458, “Synthesis of phosphatidylinositol 3-kinase (PI3K) inhibitory analogues of the sponge meroterpenoid liphagal” (J Med Chem, 2010).
